{"source": "patent US6689773B2", "about": "“Uracil substituted phenyl sulfamoyl carboxamides” (BASF Aktiengesellschaft, priority 2000, dated 2004)", "format_in_all_cases": "in vivo", "key": {"[1]": {"test_system": "AMBEL, Ragweed, Common, Ambrosia artemiisifolia, L.", "assay": "Preemergence herbicidal evaluation (Example 148)", "conditions": "rating scale 0-9, two to four weeks after treatment", "how_it_was_run": "(§1)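 Visual rating vs. control (stand, vigor, malformation, size, chlorosis, overall appearance) at 2–4 wk post-treatment. Soil surface sprayed right after sowing; ~0.125–0.250 kg/ha in aqueous acetone. Repeat tests averaged.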"}, "[2]": {"test_system": "SETVI, Green foxtail, Setaria viridis, (L.)Beau", "assay": "Preemergence herbicidal evaluation (Example 148)", "conditions": "rating scale 0-9, two to four weeks after treatment", "how_it_was_run": "as §1"}, "[3]": {"test_system": "ECHCG, Barnyardgrass, Echinochloa crusgalli, (L.)Beau", "assay": "Preemergence herbicidal evaluation (Example 148)", "conditions": "rating scale 0-9, two to four weeks after treatment", "how_it_was_run": "as §1"}, "[4]": {"test_system": "GLXMA, Soybean, Glycine max, (L.) Merr.", "assay": "Preemergence herbicidal evaluation (Example 148)", "conditions": "rating scale 0-9, two to four weeks after treatment", "how_it_was_run": "as §1"}, "[5]": {"test_system": "IPOHE, Morningglory, Ivyleaf, Ipomoea hederacea, (L)Jacq.", "assay": "Preemergence herbicidal evaluation (Example 148)", "conditions": "rating scale 0-9, two to four weeks after treatment", "how_it_was_run": "as §1"}, "[6]": {"test_system": "ABUTH, Velvetleaf, Abutilon theophrasti, Medic.", "assay": "Preemergence herbicidal evaluation (Example 148)", "conditions": "rating scale 0-9, two to four weeks after treatment", "how_it_was_run": "as §1"}, "[7]": {"test_system": "CHEAL, Lambsquarters, Chenopodium album, L. Common", "assay": "Preemergence herbicidal evaluation (Example 148)", "conditions": "rating scale 0-9, two to four weeks after treatment", "how_it_was_run": "as §1"}, "[8]": {"test_system": "ALOMY, Blackgrass, Alopecurus myosuroides", "assay": "Preemergence herbicidal evaluation (Example 148)", "conditions": "rating scale 0-9, two to four weeks after treatment", "how_it_was_run": "as §1"}, "[9]": {"test_system": "TRZAW, Winter wheat, Tritium Aestivum, L. (Winter)", "assay": "Preemergence herbicidal evaluation (Example 148)", "conditions": "rating scale 0-9, two to four weeks after treatment", "how_it_was_run": "as §1"}, "[10]": {"test_system": "XANST, Cocklebur, Xanthium strumariam", "assay": "Preemergence herbicidal evaluation (Example 148)", "conditions": "rating scale 0-9, two to four weeks after treatment", "how_it_was_run": "as §1"}, "[11]": {"test_system": "ZEAMX, Field corn, Zea mays L.", "assay": "Preemergence herbicidal evaluation (Example 148)", "conditions": "rating scale 0-9, two to four weeks after treatment", "how_it_was_run": "as §1"}, "[12]": {"test_system": "DIGSA, Crabgrass, (Hairy) L, Digitaria sanguinalis, (L)Scop", "assay": "Preemergence herbicidal evaluation (Example 148)", "conditions": "rating scale 0-9, two to four weeks after treatment", "how_it_was_run": "as §1"}, "[13]": {"test_system": "AMBEL, Ragweed, Common, Ambrosia artemiisifolia, L.", "assay": "Postemergence herbicidal evaluation (Example 147)", "conditions": "rating scale 0-9, two to three weeks after treatment", "how_it_was_run": "(§2)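 Visual 0-9 rating against an untreated control, scored roughly two to three weeks after a postemergence spray of two-week-old seedlings. Dose equivalent about 0.016 to 0.032 kg/ha, delivered in 80/20 acetone/water with 1.0% SUN-IT II at 40 psi.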"}, "[14]": {"test_system": "SETVI, Green foxtail, Setaria viridis, (L.)Beau", "assay": "Postemergence herbicidal evaluation (Example 147)", "conditions": "rating scale 0-9, two to three weeks after treatment", "how_it_was_run": "as §2"}, "[15]": {"test_system": "ECHCG, Barnyardgrass, Echinochloa crusgalli, (L.)Beau", "assay": "Postemergence herbicidal evaluation (Example 147)", "conditions": "rating scale 0-9, two to three weeks after treatment", "how_it_was_run": "as §2"}, "[16]": {"test_system": "GLXMA, Soybean, Glycine max, (L.) Merr.", "assay": "Postemergence herbicidal evaluation (Example 147)", "conditions": "rating scale 0-9, two to three weeks after treatment", "how_it_was_run": "as §2"}, "[17]": {"test_system": "IPOHE, Morningglory, Ivyleaf, Ipomoea hederacea, (L)Jacq.", "assay": "Postemergence herbicidal evaluation (Example 147)", "conditions": "rating scale 0-9, two to three weeks after treatment", "how_it_was_run": "as §2"}, "[18]": {"test_system": "ABUTH, Velvetleaf, Abutilon theophrasti, Medic.", "assay": "Postemergence herbicidal evaluation (Example 147)", "conditions": "rating scale 0-9, two to three weeks after treatment", "how_it_was_run": "as §2"}, "[19]": {"test_system": "CHEAL, Lambsquarters, Chenopodium album, L. Common", "assay": "Postemergence herbicidal evaluation (Example 147)", "conditions": "rating scale 0-9, two to three weeks after treatment", "how_it_was_run": "as §2"}, "[20]": {"test_system": "ALOMY, Blackgrass, Alopecurus myosuroides", "assay": "Postemergence herbicidal evaluation (Example 147)", "conditions": "rating scale 0-9, two to three weeks after treatment", "how_it_was_run": "as §2"}, "[21]": {"test_system": "TRZAW, Winter wheat, Tritium Aestivum, L. (Winter)", "assay": "Postemergence herbicidal evaluation (Example 147)", "conditions": "rating scale 0-9, two to three weeks after treatment", "how_it_was_run": "as §2"}, "[22]": {"test_system": "XANST, Cocklebur, Xanthium strumariam", "assay": "Postemergence herbicidal evaluation (Example 147)", "conditions": "rating scale 0-9, two to three weeks after treatment", "how_it_was_run": "as §2"}, "[23]": {"test_system": "ZEAMX, Field corn, Zea mays L.", "assay": "Postemergence herbicidal evaluation (Example 147)", "conditions": "rating scale 0-9, two to three weeks after treatment", "how_it_was_run": "as §2"}, "[24]": {"test_system": "DIGSA, Crabgrass, (Hairy) L, Digitaria sanguinalis, (L)Scop", "assay": "Postemergence herbicidal evaluation (Example 147)", "conditions": "rating scale 0-9, two to three weeks after treatment", "how_it_was_run": "as §2"}}}
{"compound": "CN(Cc1ccccc1)S(=O)(=O)NC(=O)c1cc(-n2c(=O)cc(C(F)(F)F)n(C)c2=O)c(F)cc1Cl", "note": "[Example 61]", "values": [{"measurement": "Preemergence herbicidal rating AMBEL", "setting": "[1]; rate 0.125 kg/ha", "value": 9.0}, {"measurement": "Preemergence herbicidal rating AMBEL", "setting": "[1]; rate 0.25 kg/ha", "value": 9.0}, {"measurement": "Preemergence herbicidal rating SETVI", "setting": "[2]; rate 0.125 kg/ha", "value": 3.0}, {"measurement": "Preemergence herbicidal rating SETVI", "setting": "[2]; rate 0.25 kg/ha", "value": 6.0}, {"measurement": "Preemergence herbicidal rating ECHCG", "setting": "[3]; rate 0.125 kg/ha", "value": 4.0}, {"measurement": "Preemergence herbicidal rating ECHCG", "setting": "[3]; rate 0.25 kg/ha", "value": 7.0}, {"measurement": "Preemergence herbicidal rating GLXMA", "setting": "[4]; rate 0.125 kg/ha", "value": 9.0}, {"measurement": "Preemergence herbicidal rating GLXMA", "setting": "[4]; rate 0.25 kg/ha", "value": 9.0}, {"measurement": "Preemergence herbicidal rating IPOHE", "setting": "[5]; rate 0.125 kg/ha", "value": 9.0}, {"measurement": "Preemergence herbicidal rating IPOHE", "setting": "[5]; rate 0.25 kg/ha", "value": 9.0}, {"measurement": "Preemergence herbicidal rating ABUTH", "setting": "[6]; rate 0.125 kg/ha", "value": 9.0}, {"measurement": "Preemergence herbicidal rating ABUTH", "setting": "[6]; rate 0.25 kg/ha", "value": 9.0}, {"measurement": "Preemergence herbicidal rating CHEAL", "setting": "[7]; rate 0.125 kg/ha", "value": 9.0}, {"measurement": "Preemergence herbicidal rating CHEAL", "setting": "[7]; rate 0.25 kg/ha", "value": 9.0}, {"measurement": "Preemergence herbicidal rating ALMOY", "setting": "[8]; rate 0.125 kg/ha", "value": 0.0}, {"measurement": "Preemergence herbicidal rating ALMOY", "setting": "[8]; rate 0.25 kg/ha", "value": 0.0}, {"measurement": "Preemergence herbicidal rating TRZAW", "setting": "[9]; rate 0.125 kg/ha", "value": 2.0}, {"measurement": "Preemergence herbicidal rating TRZAW", "setting": "[9]; rate 0.25 kg/ha", "value": 3.0}, {"measurement": "Preemergence herbicidal rating XANST", "setting": "[10]; rate 0.125 kg/ha", "value": 9.0}, {"measurement": "Preemergence herbicidal rating XANST", "setting": "[10]; rate 0.25 kg/ha", "value": 9.0}, {"measurement": "Preemergence herbicidal rating ZEAMX", "setting": "[11]; rate 0.125 kg/ha", "value": 2.0}, {"measurement": "Preemergence herbicidal rating ZEAMX", "setting": "[11]; rate 0.25 kg/ha", "value": 2.0}, {"measurement": "Preemergence herbicidal rating DIGSA", "setting": "[12]; rate 0.125 kg/ha", "value": 6.0}, {"measurement": "Preemergence herbicidal rating DIGSA", "setting": "[12]; rate 0.25 kg/ha", "value": 9.0}, {"measurement": "Postemergence herbicidal rating AMBEL", "setting": "[13]; rate 0.016 kg/ha", "value": 9.0}, {"measurement": "Postemergence herbicidal rating AMBEL", "setting": "[13]; rate 0.032 kg/ha", "value": 9.0}, {"measurement": "Postemergence herbicidal rating SETVI", "setting": "[14]; rate 0.016 kg/ha", "value": 7.0}, {"measurement": "Postemergence herbicidal rating SETVI", "setting": "[14]; rate 0.032 kg/ha", "value": 9.0}, {"measurement": "Postemergence herbicidal rating ECHCG", "setting": "[15]; rate 0.016 kg/ha", "value": 7.0}, {"measurement": "Postemergence herbicidal rating ECHCG", "setting": "[15]; rate 0.032 kg/ha", "value": 8.0}, {"measurement": "Postemergence herbicidal rating GLXMA", "setting": "[16]; rate 0.016 kg/ha", "value": 8.5}, {"measurement": "Postemergence herbicidal rating GLXMA", "setting": "[16]; rate 0.032 kg/ha", "value": 8.5}, {"measurement": "Postemergence herbicidal rating IPOHE", "setting": "[17]; rate 0.016 kg/ha", "value": 8.0}, {"measurement": "Postemergence herbicidal rating IPOHE", "setting": "[17]; rate 0.032 kg/ha", "value": 9.0}, {"measurement": "Postemergence herbicidal rating ABUTH", "setting": "[18]; rate 0.016 kg/ha", "value": 9.0}, {"measurement": "Postemergence herbicidal rating ABUTH", "setting": "[18]; rate 0.032 kg/ha", "value": 9.0}, {"measurement": "Postemergence herbicidal rating CHEAL", "setting": "[19]; rate 0.016 kg/ha", "value": 9.0}, {"measurement": "Postemergence herbicidal rating CHEAL", "setting": "[19]; rate 0.032 kg/ha", "value": 8.0}, {"measurement": "Postemergence herbicidal rating ALMOY", "setting": "[20]; rate 0.016 kg/ha", "value": 1.0}, {"measurement": "Postemergence herbicidal rating ALMOY", "setting": "[20]; rate 0.032 kg/ha", "value": 1.0}, {"measurement": "Postemergence herbicidal rating TRZAW", "setting": "[21]; rate 0.016 kg/ha", "value": 6.0}, {"measurement": "Postemergence herbicidal rating TRZAW", "setting": "[21]; rate 0.032 kg/ha", "value": 6.5}, {"measurement": "Postemergence herbicidal rating XANST", "setting": "[22]; rate 0.016 kg/ha", "value": 9.0}, {"measurement": "Postemergence herbicidal rating XANST", "setting": "[22]; rate 0.032 kg/ha", "value": 9.0}, {"measurement": "Postemergence herbicidal rating ZEAMX", "setting": "[23]; rate 0.016 kg/ha", "value": 7.5}, {"measurement": "Postemergence herbicidal rating ZEAMX", "setting": "[23]; rate 0.032 kg/ha", "value": 7.5}, {"measurement": "Postemergence herbicidal rating DIGSA", "setting": "[24]; rate 0.016 kg/ha", "value": 7.0}, {"measurement": "Postemergence herbicidal rating DIGSA", "setting": "[24]; rate 0.032 kg/ha", "value": 6.0}]}
